Values quoted from earlier work as cited in patent US6821979B2, “Synergistic enhancement of cognitive ability” (Blanchette Rockefeller Neurosciences Institute, priority 2002, dated 2004).
One block for each compound: values may come before it.

Legend:
[1] = test system: carbonic anhydrase; conditions: conscious animals; CNS administration; other sensory and/or locomotor behaviors not affected
[2] = test system: carbonic anhydrase; conditions: single dose; electroencephalogram during rapid-eye-movement sleep
[3] = theophylline alone; literature studies
[4] = test system: carbonic anhydrase; conditions: rats; CNS administration

reduction of magnitudes of θ-wave frequency activity [2]: 50%
SMILES: CC(=O)Nc1nnc(S(N)(=O)=O)s1 [acetazolamide]
spatial learning [1]: impairs spatial learning

SMILES: Cn1c(=O)c2[nH]cnc2n(C)c1=O [theophylline]
effect on cognition [3]: insignificant

SMILES: N[C@@H](Cc1ccccc1)C(=O)O [phenylalanine]
ability to learn a water-maze task and to recall the maze from memory [4]: significantly enhances

SMILES: c1c[nH]cn1 [imidazole]
ability to learn a water-maze task and to recall the maze from memory [4]: significantly enhances
